Drawing on patent US20100184759A1, “PYRANO-PYRAZOLE-AMINES” (priority 2007, published 2010), this text covers Ki, melting point and inhibition for eleven compounds.

For one data set, the target named is T1, σ1-receptor (Cavia porcellus, UniProt Q60492).
T1 construct: the σ1-receptor preparation was prepared from guinea pig brain; from tissue; host or cells: guinea pig brain membrane homogenate
Briefly: Sigma 1 (Version B) receptor binding, [3H]-(+)-pentazocine, guinea pig brain preparation. As to conditions: radioligand [3H]-(+)-pentazocine 2 nM. The procedure:
In brief the σ1-receptor preparation was prepared from guinea pig brain. The brains were homogenized in 5 to 6 times of volume sucrose solution (0.32M) and homogenized. The homogenate was centrifuged at 2900 rpm, 4° C., 10 min). the supernatant was centrifuged again (23500×g, 4° C., 20 min). The pellet was resuspended in Tris-buffer, incubated for 30 min at room temperature and centrifuged f (23500×g, 4° C., 20 min). The pellet was resuspended in cold TRIS-buffer and homogenized. Then the protein content was measured (approx. 1.5 mg/mL) and the homogenate frozen at −80° C. for later use.
The radioligand used was [^3H]-(+)-Pentazocin in TRIS-buffer. In a volume of 200 μL 50 μL TRIS-buffer, 50 μL compound solution of varying concentration, 50 μL radioligand-solution (8 nM; resulting in 2 nM in the assay) and finally 50 μL of receptor preparation (approx. 1.5 mg/mL) were given into a well of a microplate equipped with a filter. The plate was closed and stirred for 2.5 h at 37° C. and 500 rpm. Following that the solvents were removed by a harvester through the filter. After rinsing with H2O the filter was measured in a scintillation counter ([^3H]-protocol).

The target of another data set is T2, σ2-receptor (Rattus norvegicus, UniProt Q5U3Y7).
T2 construct: the σ2-Receptorpreparation was prepared from rat liver; from tissue; host or cells: rat liver membrane homogenate
T2 sequence (Q5U3Y7 1-176): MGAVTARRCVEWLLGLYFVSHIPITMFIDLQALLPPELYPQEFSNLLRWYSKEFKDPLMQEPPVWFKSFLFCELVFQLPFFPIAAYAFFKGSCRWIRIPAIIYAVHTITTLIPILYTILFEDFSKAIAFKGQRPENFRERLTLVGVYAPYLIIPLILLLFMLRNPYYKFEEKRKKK
Briefly: Sigma 2 (Version B) receptor binding, [3H]-ditolylguanidine, rat liver preparation. As to conditions: for Ki: radioligand [3H]-ditolylguanidine 3 nM, σ1 sites masked with (+)-pentazocine; for inhibition at 1 µM: compound at 1 μM, value in square brackets. The procedure: In brief the σ2-Receptorpreparation was prepared from rat liver. The livers were homogenized in 5 to 6 times of volume sucrose solution (0.32M) and homogenized. The homogenate was centrifuged at 2900 rpm, 4° C., 10 min). the supernatant was centrifuged again (31000×g, 4° C., 20 min). The pellet was resuspended in TRIS-buffer, incubated for 30 min at room temperature while stirring and centrifuged f (31000×g, 4° C., 20 min). The pellet was resuspended in cold TRIS-buffer pH 8 and homogenized. Then the protein content was measured (approx. 2 mg/mL) and the homogenate frozen at −80° C. for later use.
The radioligand used was [^3H]-Ditolylguanidin in TRIS-buffer pH 8. The σ1-receptor binding sites were masked through (+)-Pentazocin-solution in TRIS-Puffer pH 8.
In a volume of 200 μL 50 μL compound solution of varying concentration, 50 μL (+)-Pentazocin-solution (2 nM; resulting in 500 nM in the assay), 50 μL radioligand-solution (12 nM; resulting in 3 nM in the assay) and finally 50 μL of receptor preparation (approx. 2 mg/mL) were given into a well of a microplate equipped with a filter. The plate was closed and stirred for 2 h at room temperature and 500 rpm. Following that the solvents were removed by a harvester through the filter. After rinsing with H2O the filter was measured in a scintillation counter ([^3H]-protocol).

T1 sequence (Q60492 whole entry): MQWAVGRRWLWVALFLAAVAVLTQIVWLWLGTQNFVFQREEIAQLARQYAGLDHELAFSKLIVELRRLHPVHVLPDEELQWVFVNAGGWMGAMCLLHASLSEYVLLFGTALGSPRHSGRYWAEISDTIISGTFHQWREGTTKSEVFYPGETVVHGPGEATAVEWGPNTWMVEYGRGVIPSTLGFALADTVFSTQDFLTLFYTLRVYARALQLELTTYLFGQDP

`c1ccc(N2CCN(CC3OCCc4c3cnn4-c3ccccc3)CC2)cc1` (stereo not shown) [Example 4, 1-Phenyl-4-(4-phenylpiperazin-1-ylmethyl)-1,4,6,7-tetrahydropyrano[4,3-c]pyrazole] displayed a melting point of 151 °C. This compound also displayed a Ki on σ1-receptor of 0.0423 ± 0.00332 µM. At σ2-receptor, the inhibitory constant (Ki) was 0.21 ± 0.0542 µM.

`CN(C)CCC1OCCc2c1cnn2-c1ccccc1` (stereo not shown) [Example 14, Dimethyl-[2-(1-phenyl-1,4,6,7-tetrahydro-pyrano[4,3-c]pyrazol-4-yl)-ethyl]-amine]: the Ki on σ1-receptor came to 0.024 ± 0.002 µM; at σ2-receptor it was 1.28 µM.

Consider `c1ccc(C2CCN(CC3OCCc4c3cnn4-c3ccccc3)CC2)cc1` (stereo not shown) [Example 2, 1-Phenyl-4-(4-phenylpiperidin-1-ylmethyl)-1,4,6,7-tetrahydropyrano[4,3-c]pyrazole], for which the results for the Ki on σ1-receptor and at σ2-receptor were 0.0016 ± 0.00041 µM and 0.0083 ± 0.00266 µM, respectively.

As to `CN1CCN(CC2OCCc3c2cnn3-c2ccccc2)CC1` (stereo not shown) [Example 5, 4-(4-Methylpiperazin-1-ylmethyl)-1-phenyl-1,4,6,7-tetrahydropyrano[4,3-c]pyrazole], the melting point came out at 66 °C. At σ1-receptor, this compound showed a Ki of 0.219 ± 0.00722 µM. The same compound showed an inhibition at 1 µM at σ2-receptor of 13%.

The compound `c1ccc(-n2ncc3c2CCOC3CN2CCOCC2)cc1` (stereo not shown) [Example 3, 4-(Morpholin-4-ylmethyl)-1-phenyl-1,4,6,7-tetrahydro-pyrano[4,3-c]pyrazole] gave a melting point of 115 °C. The same compound came in with a Ki on σ1-receptor of 0.169 ± 0.0396 µM. The same compound returned an inhibition at 1 µM at σ2-receptor of 5%.

With `c1ccc(-n2ncc3c2CCOC3CN2CCCC2)cc1` (stereo not shown) [Example 6, 1-Phenyl-4-(pyrrolidin-1-ylmethyl)-1,4,6,7-tetrahydro-pyrano[4,3-c]pyrazole], the melting point was found to be 89 °C. For the same compound, the Ki at σ1-receptor is 0.0593 ± 0.0112 µM. Affinity on σ2-receptor was put at a Ki of 0.322 µM.

Turning to `CN(C)CC1OCCc2c1cnn2-c1ccccc1` (stereo not shown) [Example 7, N,N-Dimethyl-1-(1-phenyl-1,4,6,7-tetrahydropyrano[4,3-c]pyrazole-4-yl)methanamine], the melting point amounted to 103 °C. On σ1-receptor, this compound displayed a Ki of 1.38 µM. At σ2-receptor, this compound gave an inhibition at 1 µM of 12%.

With `c1ccc(C2CCN(CCC3OCCc4c3cnn4-c3ccccc3)CC2)cc1` (stereo not shown) [Example 9, 1-Phenyl-4-[2-(4-phenyl-piperidin-1-yl)-ethyl]-1,4,6,7-tetrahydro-pyrano[4,3-c]pyrazole], the inhibition constant Ki at σ1-receptor turned out to be 0.000988 ± 7e-05 µM; on σ2-receptor, 0.0151 ± 0.00298 µM.

Turning to `c1ccc(N2CCN(CCC3OCCc4c3cnn4-c3ccccc3)CC2)cc1` (stereo not shown) [Example 11, 1-Phenyl-4-[2-(4-phenyl-piperazin-1-yl)-ethyl]-1,4,6,7-tetrahydro-pyrano[4,3-c]pyrazole], the figures for the Ki on σ1-receptor and at σ2-receptor were 0.00294 ± 0.00043 µM and 0.431 µM, respectively.

Take `c1ccc(-n2ncc3c2CCOC3CCN2CCCCC2)cc1` (stereo not shown) [Example 8, 1-Phenyl-4-(2-piperidin-1-yl-ethyl)-1,4,6,7-tetrahydro-pyrano[4,3-c]pyrazole]: the Ki came to 0.00298 ± 0.00072 µM on σ1-receptor and 0.536 µM at σ2-receptor.

`c1ccc(-n2ncc3c2CCOC3CN2CCCCC2)cc1` (stereo not shown) [Example 1, 1-Phenyl-4-(piperidin-1-ylmethyl)-1,4,6,7-tetrahydro-pyrano[4,3-c]pyrazole]: the melting point is 91 °C. The compound also yielded a Ki on σ1-receptor of 0.0105 ± 0.00116 µM. For the same compound, at σ2-receptor, the affinity corresponds to a Ki of 0.453 µM.

A word on the Ki: it is a measure of affinity in units of concentration, obtained from inhibition or displacement. Low values mean tighter binding, high ones weaker binding. Usually melting point stands for the temperature, or range, at which the solid turns liquid. One may read the inhibition as the share of the control response that was lost under treatment. High values mean strong suppression, low ones little suppression.
